Assay results: patent US9351492B2, “Anti-biofilm compositions and methods for using” (priority 2010, dated 2016)

What was measured:
Staphylococcus aureus [1] = assay: MIC, CLSI broth microdilution (growth inhibition); assay type: cell-based; conditions: doses 25-2000 μM
Description: (§1) For all assays, overnight cultures grown in the appropriate medium were used to inoculate fresh medium at an initial cell density of 5×10^5 colony-forming units (CFU) per ml. Cell density was confirmed by colony count of aliquots taken immediately following inoculation of the test strain.
Briefly, test strains were inoculated into 0.1 ml CAMHB containing 220D-F2 at concentrations ranging from 0.138-4 mg/ml (0.138-4% excipient in solution). For the MIC, optical density (OD600) was assessed immediately after inoculation and again after 18 hrs using a Biotek Synergy II microplate reader. Corrections for extract color, which can alter the OD output, were done as previously described (Quave et al., 2008, supra). […] The MBC was determined by taking colony counts of aliquots taken from each well after 24 hrs and it was defined as the lowest concentration at which the initial density of viable cells was reduced by ≧90% (for MBC90) or ≧50% (for MBC50) by comparison to the untreated control. […] For these experiments, 10 ml cultures were grown at 37° C. in 25 ml Erlenmeyer flasks in BM with constant shaking (200 rpm).
(§2) Ten commercially available phytochemical constituents reported in the literature to have been isolated from R. ulmifolius (Table 4) were purchased and examined for their prophylactic efficacy in the prevention of biofilm formation using a static microtiter plate biofilm assay. Ferulic acid, kaempferol, ursolic acid, quercetin dehydrate, caffeic acid, ellagic acid, and oleanolic acid were purchased from MP BioMedicals (Solon, Ohio, USA); quercetin-3-O-glucuronide and tiliroside from Chromadex (Irvine, Calif., USA); and gallic acid from Acros Organics (NJ, USA). Compounds were tested for growth and biofilm inhibitory activity at doses ranging from 25-2000 μM. To determine the minimum inhibitory concentration (MIC) for each fraction, strains of S. aureus were grown in 37° C. in cation adjusted Muller-Hinton broth (CAMHB). MIC and MBC were determined following Clinical and Laboratory Standards Institute […] broth microdilution guidelines. Briefly, strains were inoculated into 0.1 ml CAMBH containing varying concentrations of the compound. For MIC, optical density (OD600) was assessed immediately after inoculation and again after 18 hours using Biotek Synergy II microplate reader. The MIC was defined as the lowest concentration that inhibited growth to a level greater than or equal to 90% (for MIC90) or greater than or equal to 50% (for MIC50) by comparison to untreated cultures.

Staphylococcus aureus [2] = assay type: cell-based; conditions: for Biofilm Formation MBIC50 / Biofilm Formation MBIC90: doses 25-2000 μM
Description: as §1
Biofilm formation was assessed using a microtiter plate assay as previously described (Beenken et al., 2003, Infection and Immunity 71:4206-11) except that 2-fold serial dilutions (0.0125-0.4 mg/ml, 0.0125-0.4% excipient in solution) of 220D-F2 were included in the BM. Controls for each experiment were the wild-type strain and its isogenic sarA mutant assayed in the absence of 220D-F2. The minimum biofilm inhibiting concentration (MBIC) was defined as the lowest concentration at which 220D-F2 inhibited biofilm formation to a level ≧90% (for MBIC90) or ≧50% (for MBIC50) than that observed with the parent strain in the absence of 220D-F2. […]
as §2

UAMS-1 = assay: in vitro catheter assay, established biofilm; assay type: cell-based, Staphylococcus aureus; conditions: catheters colonized without extract; 220D-F2 0.2 mg/ml, daptomycin 10 μg/ml (10× breakpoint MIC)
Description: UAMS-1 was grown on 1 cm catheter segments as previously described (Weiss et al., 2009b, Antimicrobial Agents and Chemotherapy 53:2475-2482). After 24 hrs, the BM medium was replaced with BM medium containing 220D-F2 (0.2 mg/ml) and/or daptomycin. […] The medium was replaced in its entirety at 24 hr intervals for 7 days. The therapeutic response of UAMS-1 to daptomycin in the presence of 220D-F2 was assessed by comparison to UAMS-929 grown in the absence of 220D-F2 but exposed to daptomycin as previously described (Weiss et al., 2009a, 2009b, supra). […] After each 24 h interval, catheters were removed from each treatment group and rinsed with PBS before removing bacteria for plate counts as previously described (Weiss et al., 2009a, 2009b, supra).
This assay was also used to assess the prophylactic activity of 220D-F2. In this case, the test compounds were added to the BM at the time of inoculation rather than after a 24 hr colonization period. After 24 hr incubation in the presence of 220D-F2, the catheters were processed for plate counts as described above.
Catheters were colonized with UAMS-1 in the absence of any extract. […] The antibiotics tested were daptomycin, clindamycin, vancomycin, and oxacillin.

Staphylococcus aureus [3] = conditions: Durig et al. 2010; cited from earlier work

Compound	Growth MBIC50 (Staphylococcus aureus [1])	Growth MBIC90 (Staphylococcus aureus [1])	Biofilm Formation MBIC50 (Staphylococcus aureus [2])	Biofilm Formation MBIC90 (Staphylococcus aureus [2])	average colony counts at day 7 (UAMS-1)	anti-biofilm activity at doses well below any growth inhibitory effects (Staphylococcus aureus [2]; among 10 phytochemicals)	biofilm inhibition of S. aureus, previous studies (Staphylococcus aureus [3])
O=c1c(O)c(-c2ccc(O)cc2)oc2cc(O)cc(O)c12 [Kaempferol]	1640 ± 10 µM	1787 ± 42 µM	560 ± 53 µM	773 ± 6 µM			
O=C(/C=C/c1ccc(O)cc1)OC[C@H]1O[C@@H](Oc2c(-c3ccc(O)cc3)oc3cc(O)cc(O)c3c2=O)[C@H](O)[C@@H](O)[C@@H]1O [Tiliroside]	>2000 µM	>2000 µM	>2000 µM	>2000 µM			
O=C(O)c1cc(O)c(O)c(O)c1 [Gallic Acid]	>2000 µM	>2000 µM	713 ± 32 µM	2010 ± 10 µM			
Ursolic Acid	640 ± 46 µM	763 ± 32 µM	207 ± 32 µM	397 ± 6 µM			
O=C(O)/C=C/c1ccc(O)c(O)c1 [Caffeic Acid]	>2000 µM	>2000 µM	>2000 µM	>2000 µM			
CCCCCCCCCC(=O)N[C@@H](Cc1c[nH]c2ccccc12)C(=O)N[C@H](CC(N)=O)C(=O)N[C@@H](CC(=O)O)C(=O)N[C@@H]1C(=O)NCC(=O)N[C@@H](CCCN)C(=O)N[C@@H](CC(=O)O)C(=O)N[C@H](C)C(=O)N[C@@H](CC(=O)O)C(=O)NCC(=O)N[C@H](CO)C(=O)N[C@@H]([C@H](C)CC(=O)O)C(=O)N[C@@H](CC(=O)c2ccccc2N)C(=O)O[C@@H]1C [daptomycin]					1.01×10^7 CFU/catheter		
O=c1c(O)c(-c2ccc(O)c(O)c2)oc2cc(O)cc(O)c12 [Quercetin Dihydrate]	1720 ± 20 µM	1903 ± 29 µM	543 ± 21 µM	1987 ± 21 µM			
Oleanolic Acid	1077 ± 15 µM	1613 ± 31 µM	190 ± 26 µM	940 ± 35 µM			
O=C(O)[C@H]1OC(Oc2c(-c3ccc(O)c(O)c3)oc3cc(O)cc(O)c3c2=O)[C@H](O)[C@@H](O)[C@@H]1O (stereo partly drawn) [Quercetin-3-O-glucuronide]	>2000 µM	>2000 µM	>2000 µM	>2000 µM			
O=c1oc2c(O)c(O)cc3c(=O)oc4c(O)c(O)cc1c4c23 [Ellagic Acid]	>2000 µM	>2000 µM	38 ± 13 µM	763 ± 32 µM		meaningful anti-biofilm activity	not an effective biofilm inhibitor
